Measurements: US4738979A, “α2 -blocking derivatives of imidazole” (G. D. Searle & Co., priority 1985, dated 1988)

Key:
α2 -adrenergic receptors = molecular target: T1, α2 -adrenergic receptors (Cavia porcellus, UniProt Q60474); experiment: α2 antagonist and α2 agonist activity in isolated guinea pig ileum (clonidine); settings: for EC50: 50% of maximum inhibition obtained with clonidine, read-out: α2 Agonist Activity (-log ED50) (converted); for Kb: versus clonidine, read-out: α2 Antagonist Activity (pA2) (converted)
T1 construct: from tissue; host or cells: isolated guinea pig ileum
T1 sequence (Q60474 1-464): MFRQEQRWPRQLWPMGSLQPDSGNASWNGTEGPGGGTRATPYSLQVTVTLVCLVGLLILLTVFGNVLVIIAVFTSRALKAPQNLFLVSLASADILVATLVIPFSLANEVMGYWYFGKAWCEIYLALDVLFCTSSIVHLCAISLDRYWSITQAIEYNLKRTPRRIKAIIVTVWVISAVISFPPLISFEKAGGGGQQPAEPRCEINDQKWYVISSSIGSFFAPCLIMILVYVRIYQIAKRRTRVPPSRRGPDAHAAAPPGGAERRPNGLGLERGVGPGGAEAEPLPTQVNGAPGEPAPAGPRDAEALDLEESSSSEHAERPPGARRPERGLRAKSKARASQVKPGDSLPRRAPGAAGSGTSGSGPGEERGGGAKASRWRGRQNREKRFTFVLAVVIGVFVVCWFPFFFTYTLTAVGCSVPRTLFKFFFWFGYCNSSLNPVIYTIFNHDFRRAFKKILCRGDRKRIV
Experimental: The α2 antagonist and α2 agonist activity of the compounds according to the invention was determined upon isolated organs according to a model described by G. M. Drews, Br. J. Pharmaco., 64, 293-300 (1978).
This model is based upon the principle that the stimulation of the cholinergic nervous transmissions of the guinea pig ileum causes the liberation of acetyl choline, which in turn causes contractions of the ileum.
The stimulation of the α2 -adrenergic receptors inhibits the activity of the cholinergic nerve and consequently reduces all response resulting from a timulation of the latter. Thus the contractions of the ileum induced by electric stimulation of the tissue are inhibited by clonidine, an α2 agonist, in proportion to the dose. This inhibition is specifically displaced by the α2 antagonists and not by the α1 antagonists.
The method utilized can be summarized as follows: three dose-response curves to clonidine are established at an interval of 60 minutes. Two concentrations of the product to be tested are added successively 10 minutes before the realization of the second and third clonidine curves. Next, after washing, a dose-response curve is established with the product to be tested.
The dose-response curves are calculated as a percentage of the maximum inhibition obtained for the first curve. In this system the products having an α2 antagonist activity displace the dose-response curve to clonidine. The α2 antagonist activity, expressed in pA2 value, shown in column 4, is calculated according to J. M. Van Rossum, Arch. Int. Pharmacodyn., 143, 299-300 (1963).
A reduction of the contractions induced by the tested product alone indicates an α2 agonist effect. This activity is expressed in--log ED50 (the--logarithm of the concentration of the product giving 50% of the maximum inhibition obtained with clonidine).
The higher the pA2 value, the higher the α2 antagonist activity; the higher the--log ED50 value (i.e., the pA2 agonist activity), the higher the α2 agonist activity.

[1] = system: peripheral vascular α2 receptors; experiment: inhibition of the pressor effect of BHT 920 in pithed rats; assay type: in vivo, rat; settings: 1 mg/kg i.v., BHT 920 30 μg/kg i.v.
Experimental: The α2 antagonist activity of the compounds is evaluated by the inhibition of the pressor effect (blood pressure elevation), of a specific α2 agonist agent, 4H-Thiazolo[4,5-b]azetin-2-amine, 5,6,7,8-tetrahydro-6-(2-propenyl)-, dihydrochloride, designated as BHT 920 at a concentration of 30 μg/kg i.v.) according to a method described by J. C. Van Meel et al., J. Pharmacol. Exp. Ther., 219, 760-767 (1981).
The compound to be tested is administered at 1 mg/kg i.v. The ability of the compounds tested to antagonize the pressor effects of BHT 920 is determined and expressed as percentage of inhibition. Any direct hypertensive (=α2 agonist) activity of the compounds under test can likewise be detected.

[2] = system: α2 adrenergic receptors of the central nervous system; experiment: inhibition of the antihypertensive action of clonidine in spontaneously hypertensive rats (SHR); assay type: in vivo, rat; settings: 1 mg/kg p.o., clonidine 50 μg/kg s.c.
Experimental: In the first study, carried out upon unanaesthetized spontaneously hypertensive rats (SHR rats), the ability of the compounds of the present invention to inhibit the antihypertensive action of clonidine was determined.
The antihypertensive activity of clonidine results from an interaction with α2 adrenergic receptors of the central nervous system, i.e., central antihypertensive actions.
In this test, two groups of SHR rats are utilized as follows. In the first group, prior to subcutaneous administration of clonidine (50 μg/kg), the SHR rats are treated with the compound to be tested (1 mg/kg p.o.) dissolved in a saline vehicle. The second group (control group) of SHR rats are treated with the saline vehicle only, prior to subcutaneous administration of clonidine.
The arterial pressure is measured in the region of the median coccygeal artery according to the method of J. Roba, A. F. DeSchaepdrijver, Exp. Anim., 4, 147-162 (1971).
The results of this assay summarized in Table II, column 5, are expressed as a percentage of inhibition of the effect of clonidine.

[3] = system: bicuculline-induced tonic extension in mice; experiment: protection against bicuculline-induced tonic extension in mice; assay type: in vivo; settings: Mus musculus, iv, 3 hours prior to bicuculline 0.7 mg/kg i.v., read-out: Anticonvulsive effect (versus Bicuculline) (% Protection)
Experimental: In the second study the anti-convulsant effect of the compounds of the present invention was examined in two seizure models; bicuculline-induced tonic extension in mice and 3-mercaptopropionic acid (3-MPA)-induced tonic extension in mice.
In the bicuculline study, the ability of the compounds of the present invention to protect against tonic extension (involving rigidity) was evaluated as follows. Each test compound was administered to a group of ten mice at a dose of 10 mg/kg, 3 hours prior to the i.v. administration of bicuculline (0.7 mg/kg). Anticonvulsant activity in this test is expressed as percentage of animals tested. The results are given in Table II, column 6, and indicate that several compounds display significant anticonvulsive activity in this test. The anticonvulsant effect of the compounds has also been tested with respect to the tonic extension induced by 3-mercaptopropionic acid (120 mg/kg subcutaneously) in mice.

| SMILES | EC50 (α2 -adrenergic receptors) [nM] | Kb (α2 -adrenergic receptors) [nM] | α2 antagonist activity, inhibition of pressor effect of BHT 920 (in words) [1] | α2 Antagonist (% Inhibition of the Antihypertension of Clonidine) [2] [%] | responders at 10 mg/kg [3] [%] |
| --- | --- | --- | --- | --- | --- |
| Cc1ccccc1C(Cc1c[nH]cn1)c1ccccc1 (stereo not shown) [Compound 12] | 3980 | 12.6 | very active as α2 antagonist agents | 78 | 50 |
| Cc1cccc(C(Cc2c[nH]cn2)c2ccccc2)c1 (stereo not shown) [Compound 9, 4(5)-{[2-(3-methylphenyl)-2-phenyl]ethyl}imidazole] | 2510 | 15.8 | very active as α2 antagonist agents | 92 | 20 |
| Clc1ccccc1C(Cc1c[nH]cn1)c1ccccc1 (stereo not shown) [Compound 13, 4(5)-{[2-(2-chlorophenyl)-2-phenyl]ethyl}imidazole] | 3160 | 10 | very active as α2 antagonist agents | 46 | 20 |
| Cc1ccc(C)c(C(Cc2c[nH]cn2)c2ccccc2)c1 (stereo not shown) [Compound 16] | 2000 | 100 | – | 69 | 20 |
| Cc1ccc(C(Cc2c[nH]cn2)c2ccccc2)cc1 (stereo not shown) [Compound 21] | 5010 | 25.1 | very active as α2 antagonist agents | 48 | 50 |
| Fc1ccc(C(Cc2c[nH]cn2)c2ccccc2F)cc1 (stereo not shown) [Compound 15, 4(5)-{[2-(2-fluorophenyl)-2-(4'-fluorophenyl)]ethyl}imidazole] | 5010 | 15.8 | very active as α2 antagonist agents | 75 | 0 |
| Fc1ccc(C(Cc2c[nH]cn2)c2ccccc2)cc1 (stereo not shown) [Compound 14, 4(5)-{[2-(4-fluorophenyl)-2-phenyl]ethyl}imidazole] | 6310 | 15.8 | very active as α2 antagonist agents | 82 | 0 |
| COc1ccc(C(Cc2c[nH]cn2)c2ccccc2)cc1 (stereo not shown) [Compound 17, 4(5)-{[2-(4-methoxyphenyl)-2-phenyl]ethyl}imidazole] | 10000 | 12.6 | very active as α2 antagonist agents | 26 | 10 |
| c1ccc(C(Cc2c[nH]cn2)c2ccccc2)cc1 [Compound 1, 4(5)-(2,2-diphenylethyl)-imidazole] | 3160 | 5.01 | very active as α2 antagonist agents | 50 | 0 |
| CC(c1c[nH]cn1)C(c1ccccc1)c1ccccc1 (stereo not shown) [Compound 4] | > 3160 | 316 | very active as α2 antagonist agents | 68 | 40 |
